Test [1] has as its target T1, CXCR4 (Homo sapiens, UniProt P61073). The experiment in a line: cell-based.
The target in test [2] is T1, CXCR4. Kind of test: Three parallel CXCR4 competitive binding assays (FITC-CVX15, FITC-DV1, 12G5) compared. Further details: expressed in transfected cells; host or cells: CHO (CHO-CXCR4, G418-selected). To be noted: for difference of IC50 values between the three binding systems: Type 1, relative to the minimum values. The protocol: (§1) Gradient concentrations of CXCR4 ligands were prepared with 1% BSA/PBS. CHO-CXCR4 cells were cultured and diluted into 5 × 10^5 cells/mL in 0.5% BSA/PBS. One hundred microliters of above cell solutions were added to each well of a 96-well plate and washed twice with 0.5% BSA/PBS. Cells were then incubated with 100 μL primary 12G5 Ab (1:2000, mouse anti-human CD184 antibody, BD Biosciences, CA, USA) in 0.5% BSA/PBS except for negative control group and gradient concentrations of CXCR4 ligands for 40 min on a shaker at 4 °C.

The target of test [3] is T1, CXCR4. Kind of test: FITC-CVX15-based competitive binding assay on CHO-CXCR4 cells. Further details: expressed in transfected cells; host or cells: CHO (CHO-CXCR4, G418-selected).
Test [4] concerns the target T1, CXCR4. The experiment in a line: 12G5 antibody-based competitive binding assay on CHO-CXCR4 cells. Further details: expressed in transfected cells; host or cells: CHO (CHO-CXCR4, G418-selected). The protocol:
as §1

Test [5] concerns the target CXC-type chemokine receptor 4 (CXCR4) (UniProt P61073). The experiment in a line: saturation binding on cells, fluorescence by microplate reader.
Test [6] shares this target. Kind of test: competitive binding on cells, fluorescence by microplate reader; FITC-CVX15-based: CHO-CXCR4 cells, 400 nM FITC-CVX15 with gradient concentrations of ligand in 1% BSA/PBS, 50 min, 4 °C, dark, washed twice; excitation 485 nm, emission 535 nm.
The target is the same in test [7]. Kind of test: competitive binding on cells, fluorescence by microplate reader; FITC-DV1-based: CHO-CXCR4 cells, 1 μM FITC-DV1 with gradient concentrations of ligand in 1% BSA/PBS, 50 min, 4 °C, dark, washed twice; excitation 485 nm, emission 535 nm.
The target is the same in test [8]. Kind of test: competitive binding on cells, fluorescence by microplate reader; 12G5-based: CHO-CXCR4 cells, antibody 12G5 (250 ng/mL; 1:2000) with gradient concentrations of ligand in 0.5% BSA/PBS, 40 min, 4 °C; FITC-conjugated goat anti-mouse IgG 30 min; excitation 485 nm, emission 535 nm.
Test [9] deals with T2, CXC-type chemokine receptor 4 (CXCR4) (UniProt P61073 1-352).
T2 construct: also called CD184; CHO-CXCR4
Kind of test: competitive binding on cells, fluorescence by microplate reader; FITC-CVX15-based: CHO-CXCR4 cells, 400 nM FITC-CVX15 with gradient concentrations of ligand in 1% BSA/PBS, 50 min, 4 °C, dark, washed twice; excitation 485 nm, emission 535 nm. The note with it: one partner purified.

Test [10] has as its target T2, CXC-type chemokine receptor 4 (CXCR4). The experiment in a line: competitive binding on cells, fluorescence by microplate reader; FITC-DV1-based: CHO-CXCR4 cells, 1 μM FITC-DV1 with gradient concentrations of ligand in 1% BSA/PBS, 50 min, 4 °C, dark, washed twice; excitation 485 nm, emission 535 nm. To be noted: one partner purified.
Test [11] has the same target. Kind of test: competitive binding on cells, fluorescence by microplate reader; 12G5-based: CHO-CXCR4 cells, antibody 12G5 (250 ng/mL; 1:2000) with gradient concentrations of ligand in 0.5% BSA/PBS, 40 min, 4 °C; FITC-conjugated goat anti-mouse IgG 30 min; excitation 485 nm, emission 535 nm. The note with it: one partner purified.

Bridge positions count the residues as written; N and C are the ends. Square brackets hold non-standard residues; d marks the D form. Ends that are not written are not given here. Peptide text beside a SMILES is read from it. 2Nal = N[C@@H](Cc1ccc2ccccc2c1)C(=O)O; Lys(iPr) = CC(C)NCCCC[C@H](N)C(=O)O; Cit = NC(=O)NCCC[C@H](N)C(=O)O

T2 sequence (P61073 whole entry): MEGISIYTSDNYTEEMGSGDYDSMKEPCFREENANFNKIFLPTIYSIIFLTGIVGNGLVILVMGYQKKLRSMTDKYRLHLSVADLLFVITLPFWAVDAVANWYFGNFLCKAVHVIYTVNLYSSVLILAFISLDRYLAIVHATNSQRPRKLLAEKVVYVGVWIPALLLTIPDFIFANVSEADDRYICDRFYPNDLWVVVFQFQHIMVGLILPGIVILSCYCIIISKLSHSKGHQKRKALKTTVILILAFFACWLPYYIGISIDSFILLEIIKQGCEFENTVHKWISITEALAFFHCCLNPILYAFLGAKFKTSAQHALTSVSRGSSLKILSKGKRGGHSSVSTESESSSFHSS
T1 sequence (P61073 whole entry): as above
CXC-type chemokine receptor 4 (CXCR4) (UniProt P61073), sequence (P61073 whole entry): as above

What is called IC50 is the concentration needed to halve the response being measured. On to `CC(C)C[C@H](NC(=O)[C@H](CS)NC(=O)[C@H](CS)NC(=O)[C@H](CCCCN)NC(=O)[C@H](CC(=O)O)NC(=O)[C@@H]1CCCN1C(=O)[C@H](CCCNC(=N)N)NC(=O)[C@H](Cc1c[nH]cn1)NC(=O)[C@H](Cc1c[nH]c2ccccc12)NC(=O)[C@H](CO)NC(=O)[C@H](C)NC(=O)CNC(=O)[C@@H](N)CC(C)C)C(=O)NCC(=O)N[C@@H](Cc1ccc(O)cc1)C(=O)N[C@@H](CCC(N)=O)C(=O)N[C@@H](CCCCN)C(=O)N[C@@H](CCCNC(=N)N)C(=O)N1CCC[C@H]1C(=O)N[C@@H](CC(C)C)C(=O)N1CCC[C@H]1C(=O)O` [V1] (H-LGASWHRPDKCCLGYQKRPLP-OH), for which the IC50 is 676 nM in [1], 687 nM in test [3] and 712 nM in test [4]. The “difference of IC50 values between the three binding systems” value (“difference” below) in test [2] is given as “less than two folds”.

Take `N=C(N)NCCC[C@@H]1NC(=O)[C@@H]2CSSC[C@H](NC(=O)[C@H](Cc3ccc4ccccc4c3)NC(=O)[C@H](CCCNC(=N)N)NC(=O)[C@H](CCCNC(=N)N)NC(=O)[C@H]3CCCN3C(=O)CNC1=O)C(=O)N[C@@H](Cc1ccc(O)cc1)C(=O)N[C@@H](CCC(N)=O)C(=O)N[C@@H](CCCCN)C(=O)N1CCC[C@@H]1C(=O)N1CCC[C@H]1C(=O)N[C@@H](Cc1ccc(O)cc1)C(=O)N[C@@H](CCCNC(=N)N)C(=O)N[C@@H](CCCNC(N)=O)C(=O)N2` [CVX15] (cyclo(RR[2Nal]CYQK[dP]PYR[Cit]CRG[dP]); disulfide 4-13): the “difference” value in test [2] is “less than two folds”.

As to `CC(C)C[C@@H](N)C(=O)NCC(=O)N[C@H](C)C(=O)N[C@H](CO)C(=O)N[C@H](Cc1c[nH]c2ccccc12)C(=O)N[C@H](Cc1c[nH]cn1)C(=O)N[C@H](CCCNC(=N)N)C(=O)N1CCC[C@@H]1C(=O)N[C@H](CC(=O)O)C(=O)N[C@H](CCCCN)C(=O)N[C@H](CS)C(=O)N[C@H](CS)C(=O)N[C@H](CC(C)C)C(=O)NCC(=O)N[C@H](Cc1ccc(O)cc1)C(=O)N[C@H](CCC(N)=O)C(=O)N[C@H](CCCCN)C(=O)N[C@H](CCCNC(=N)N)C(=O)N1CCC[C@@H]1C(=O)N[C@H](CC(C)C)C(=O)N1CCC[C@@H]1C(N)=O` [DV1] (H-[dL]G[dA][dS][dW][dH][dR][dP][dD][dK][dC][dC][dL]G[dY][dQ][dK][dR][dP][dL][dP]-NH2), the “difference” value in test [2] is on record as “less than two folds”.

FITC-CVX15 (peptide) had a concentration at which the fluorescent signal reached a plateau in [5] of 400 nM.

On to `CC(C)NCCCC[C@H](NC(=O)[C@H]1CCC(=O)N[C@@H](Cc2ccccc2)C(=O)N[C@@H](Cc2ccc(O)cc2)C(=O)N[C@@H](CCCCNC(C)C)C(=O)N[C@H](CCCNC(=N)N)C(=O)N[C@@H](Cc2ccc3ccccc3c2)C(=O)NCC(=O)N1)C(N)=O` [LY2510924] (FY[Lys(iPr)][dR][2Nal]G[dE][Lys(iPr)]-NH2; lactam N-7), for which, in test [2] (Type 3), the “IC50 from 12G5-based assay versus IC50 from FITC-CVX15 and FITC-DV1 assays” value is on record as “over two-fold higher”.

CVX15 (peptide): the half-maximal inhibitory concentration (IC50) in [6] stood at 6.2 nM; in [7] it was 6.8 nM; in [8] it was 6 nM.

For [dL]G[dA][dS][dW][dH][dR][dP][dD][dK][dC][dC][dL]G[dY][dQ][dK][dR][dP][dL][dP] (cysteine pairing not given here; also: dimer (linkage not given here)) [DV1 dimer], the values for the IC50 in test [9], in test [10] and in test [11] were 29.4 nM, 25.6 nM and 67 nM, respectively.

Source of the values: article PMC6720714, “Structural and Biological Characterizations of Novel High-Affinity Fluorescent Probes with Overlapped and Distinctive Binding Regions on CXCR4” (Molecules, 2019).
